US7691818B2, “Peptidomimetic inhibitors of retroviral proteases and their use as antivirals” (Universita' Degli Studi Di Treiste, priority 2004, dated 2010)

These compounds were tested against HIV-1 recombinant protease (Human immunodeficiency virus type 1 group M subtype B, UniProt P04585) (assay: biochemical).
Method: Inhibitory activity was measured in accordance with the method described by A. Tossi et al. (Eur. J. Biochem., 2000, 267, 1715) using an HIV-1 recombinant protease supplied by Bioczech (Prague, CZ) and the fluorogenic substrate Abz-Thr-Ile-Nle-Phe(p-NO2)-Gln-Arg-NH2 (abbreviated hereinafter as Abz-NF*-6) supplied by Bachem (Bubendorf, CH). Specifically, 189 μL of a 30 μM solution of Abz-NF*-6 in a 100 mM MES-NaOH buffer (pH 5.5) containing NaCl (400 mM), EDTA (1 mM), DTT (1 mM) and BSA (1 mg/mL) are incubated at 25° C. in a cuvette placed directly in the spectrofluorimeter, irradiated at 325 mn and checking that there is no increase of emission at 420 nm due to the spontaneous hydrolysis of the substrate. After 1.5 minutes 11 μL of a standard solution of HIV-PR (0.4 mg/mL) in the same buffer are added and the variation in fluorescence, due to catalysed hydrolysis of the Abz-NF*-6 substrate, is recorded for 1 minute. 2 μL of the inhibitor solution in DMSO or MES buffer are then added and the variation in fluorescence over time due to hydrolysis of the Abz-NF*-6 substrate in the presence of the specific inhibitor is recorded.
Compound `CCC(C)C(NC(=O)C(NC(C)=O)C(C)C)C(=O)N1CCC[C@H]1[C@H](O)[C@@H](O)[C@H](Cc1ccccc1)NC(=O)C(CC(N)=O)NC(=O)C(CC(C)C)NC(=O)C(CO)NC(C)=O` (stereo partly drawn) [(21), NH-Ac-Ser-Leu-Asn-Phe-[φ]-Pro-Ile-Val-NH-Ac] has an IC50 of 0.61 nM.
Work on `CC(=O)N[C@@H](Cc1c[nH]c2ccccc12)C(=O)N[C@H](C(=O)N[C@@H](Cc1ccccc1)[C@H](O)[C@@H](O)[C@@H]1CCCN1C(=O)[C@@H](NC(=O)[C@H](Cc1c[nH]c2ccccc12)NC(C)=O)C(C)C)C(C)C` [(22), NH-Ac-Trp-Val-Phe-[φ]-Pro-Val-Trp-NH-Ac] yielded an IC50 of 0.06 nM.
`Cc1cccc(C)c1OCC(=O)N[C@@H](Cc1ccccc1)[C@H](O)[C@@H](O)[C@@H]1CCCN1C(=O)COc1c(C)cccc1C` [(23), DmPoa-Phe-[φ]-Pro-DmPoa] showed an IC50 of 9.6 nM.
`CC(=O)NC(Cc1c[nH]c2ccccc12)C(=O)NC(C(=O)N1CCC[C@H]1[C@H](O)[C@@H](O)[C@H](Cc1ccccc1)NC(=O)COc1c(C)cccc1C)C(C)C` (stereo partly drawn) [(24), DmPoa-Phe-[φ]-Pro-Val-Trp-NH-Ac] showed an IC50 of 75.3 nM.
Compound `Cc1cccc(C)c1OCC(=O)N[C@@H](Cc1ccccc1)[C@H](O)[C@@H](O)[C@@H]1CCCN1C(=O)COc1ccccc1` [(25), DmPoa-Phe-[φ]-Pro-Poa] has an IC50 of 84.7 nM.
